Experimental data published in US20260226048A1, “MULTI-CYCLIC IRAK AND FLT3 INHIBITING COMPOUNDS AND USES THEREOF” (CHILDREN'S HOSPITAL MEDICAL CENTER, priority 2023, published 2026).

Assays:
MOLM14 D835Y cells = test: MOLM14 D835Y cell viability assay (Cell Titer Glo); assay type: cell-based; details: Homo sapiens, MOLM-14, 48 h, cell viability, Cell Titer Glo, 48 hours; read-out: MOLM14 D835Y IC50
Description: Both cell lines have activated FLT3 receptors, each of which carry additional resistance mutations in the kinase domain (D835Y and F691L, respectively).
For viability/cytotoxicity assessments, cells were seeded into 1536-well white polystyrene tissue culture-treated Greiner plates using a Multidrop Combi dispenser (ThermoFisher), in final volume 5 μL of growth media per well, at a density of 1000 cells per well. […] Plates were incubated for 48 hours at standard incubator conditions covered by a stainless steel gasketed lid to prevent evaporation. 48 hours post compound addition, 3 μL of Cell Titer Glo (Promega) were added to each well and plates were incubated at room temperature for 15 minutes with the stainless-steel lid in place. Luminescence readings were taken using a Viewlux imager (PerkinElmer) with a 2 second exposure time per plate.

IRAK4 = molecular target: T1, IRAK4 (Homo sapiens, UniProt Q9NWZ3); test: RBC HotSpot Kinase Assay, IRAK4; assay type: biochemical; design: purchased Reaction Biology (RBC HotSpot); details: isolated kinase enzyme, 33P-ATP, P81 filter-binding
T1 sequence (Q9NWZ3 1-460): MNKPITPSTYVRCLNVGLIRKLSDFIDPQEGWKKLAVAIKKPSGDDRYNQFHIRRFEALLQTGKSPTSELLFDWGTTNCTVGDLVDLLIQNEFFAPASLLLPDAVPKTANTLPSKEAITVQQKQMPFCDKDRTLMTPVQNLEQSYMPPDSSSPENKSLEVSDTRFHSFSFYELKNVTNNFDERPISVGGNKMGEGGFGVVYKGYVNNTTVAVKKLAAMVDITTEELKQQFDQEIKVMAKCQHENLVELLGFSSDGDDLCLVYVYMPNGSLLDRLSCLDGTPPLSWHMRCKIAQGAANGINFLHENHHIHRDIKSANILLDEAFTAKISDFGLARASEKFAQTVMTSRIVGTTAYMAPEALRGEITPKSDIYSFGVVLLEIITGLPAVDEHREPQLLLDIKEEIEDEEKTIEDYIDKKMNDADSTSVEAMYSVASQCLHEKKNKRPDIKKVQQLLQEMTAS
Text: (§1) This assay uses the isolated kinase enzyme. This assay is very useful for determining competition of the inhibitor for ATP and/or substrates and for measuring the kinetics of enzyme inhibition. […] Unlike kinase binding assays that measure competition for ATP, the HotSpot Kinase Assay is a functional assay that measures catalytic activity; as such it measures relative functional potency regardless of the mechanism of enzyme inhibition. This assay uses the form of the various enzymes that are easiest to express, which may not necessarily be the form of the enzyme that exist in the cell. (Sometimes the carboxy terminus has been truncated to aid in expression, or, if it is a receptor kinase, the enzyme itself is isolated from the other parts of the receptor that are involved in regulating kinase activity.)
(§2) The reagent used was as follows: Base Reaction buffer; 20 mM Hepes (pH 7.5), 10 mM MgCl2, 1 mM EGTA, 0.01% Brij35, 0.02 mg/ml BSA, 0.1 mM Na3VO4, 2 mM DTT, 1% DMSO. Required cofactors were added individually to each kinase reaction.
The reaction procedure was as follows: • 1) Substrates were prepared in freshly prepared Reaction Buffer. • 2) Any required cofactors were delivered to the substrate solution above. • 3) Kinase was delivered into the substrate solution and gently mixed. • 4) Compounds were delivered in 1000A DM into the kinase reaction mixture by Acoustic technology (Echo550; nanoliter range), followed by incubation for 20 min at room temp. • 5) 33P-ATP was delivered into the reaction mixture to initiate the reaction. • 6) The mixture was incubated for 2 hours at room temperature. • 7) Kinase activity was detected by P81 filter-binding method.

IRAK1 = molecular target: T2, IRAK1 (Homo sapiens, UniProt P51617); test: RBC HotSpot Kinase Assay, IRAK1; assay type: biochemical; details: isolated kinase enzyme, 33P-ATP, P81 filter-binding
T2 construct: purchased Reaction Biology (RBC HotSpot)
Text: as §1, with “enzyme.” for “enzyme. This assay is very useful for determining competition of the inhibitor for ATP and/or substrates and for measuring the kinetics of enzyme inhibition.”
as §2

FLT3 = molecular target: T3, FLT3 (Homo sapiens, UniProt P36888); test: RBC HotSpot Kinase Assay, FLT3; assay type: biochemical; design: purchased Reaction Biology (RBC HotSpot); details: isolated kinase enzyme, 33P-ATP, P81 filter-binding
T3 sequence (P36888 27-993): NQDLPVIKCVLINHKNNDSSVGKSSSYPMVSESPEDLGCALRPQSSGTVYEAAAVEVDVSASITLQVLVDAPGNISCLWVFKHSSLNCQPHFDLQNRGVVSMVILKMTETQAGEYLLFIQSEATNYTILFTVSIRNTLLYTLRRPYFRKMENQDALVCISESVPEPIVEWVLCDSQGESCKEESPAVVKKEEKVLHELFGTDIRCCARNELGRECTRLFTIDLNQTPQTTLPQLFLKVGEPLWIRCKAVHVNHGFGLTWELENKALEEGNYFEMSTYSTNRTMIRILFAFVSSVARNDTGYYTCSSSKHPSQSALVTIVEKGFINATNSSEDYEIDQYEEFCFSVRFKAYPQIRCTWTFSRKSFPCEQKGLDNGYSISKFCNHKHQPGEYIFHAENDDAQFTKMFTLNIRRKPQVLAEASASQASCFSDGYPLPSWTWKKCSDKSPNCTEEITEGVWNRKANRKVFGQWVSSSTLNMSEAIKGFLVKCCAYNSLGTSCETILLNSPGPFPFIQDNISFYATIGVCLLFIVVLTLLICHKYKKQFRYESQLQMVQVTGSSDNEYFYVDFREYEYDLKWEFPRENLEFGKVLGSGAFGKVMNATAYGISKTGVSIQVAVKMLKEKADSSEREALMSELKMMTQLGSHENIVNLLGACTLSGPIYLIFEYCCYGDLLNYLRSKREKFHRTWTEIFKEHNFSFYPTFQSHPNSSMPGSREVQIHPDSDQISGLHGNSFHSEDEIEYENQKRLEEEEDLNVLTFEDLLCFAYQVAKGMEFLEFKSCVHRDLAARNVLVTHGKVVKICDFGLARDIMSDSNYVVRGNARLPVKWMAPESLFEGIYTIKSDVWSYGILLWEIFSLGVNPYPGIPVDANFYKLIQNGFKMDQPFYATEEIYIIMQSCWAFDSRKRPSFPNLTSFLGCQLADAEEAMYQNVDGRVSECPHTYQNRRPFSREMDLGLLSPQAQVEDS
Text: as §1, with “enzyme.” for “enzyme. This assay is very useful for determining competition of the inhibitor for ATP and/or substrates and for measuring the kinetics of enzyme inhibition.”
as §2

T2 sequence (P51617 whole entry): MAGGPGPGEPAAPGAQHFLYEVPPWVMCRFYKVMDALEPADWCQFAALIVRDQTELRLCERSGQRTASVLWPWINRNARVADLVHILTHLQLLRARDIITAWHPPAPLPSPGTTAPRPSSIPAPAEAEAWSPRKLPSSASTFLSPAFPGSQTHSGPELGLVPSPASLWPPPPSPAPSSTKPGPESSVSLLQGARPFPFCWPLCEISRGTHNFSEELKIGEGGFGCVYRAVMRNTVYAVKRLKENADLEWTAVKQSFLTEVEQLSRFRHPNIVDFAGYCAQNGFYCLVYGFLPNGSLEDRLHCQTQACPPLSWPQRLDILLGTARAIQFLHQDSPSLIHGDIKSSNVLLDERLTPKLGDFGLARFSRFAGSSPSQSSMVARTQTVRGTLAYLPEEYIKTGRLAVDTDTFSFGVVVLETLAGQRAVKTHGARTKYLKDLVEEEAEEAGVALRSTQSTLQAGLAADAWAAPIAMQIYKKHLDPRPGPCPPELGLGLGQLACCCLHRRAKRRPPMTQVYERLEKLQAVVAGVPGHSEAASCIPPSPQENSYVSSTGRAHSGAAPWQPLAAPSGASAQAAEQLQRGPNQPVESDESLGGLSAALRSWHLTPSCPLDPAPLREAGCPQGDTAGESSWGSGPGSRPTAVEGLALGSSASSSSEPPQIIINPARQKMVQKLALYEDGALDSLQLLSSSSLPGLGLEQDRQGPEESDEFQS

| Compound | IC50 (MOLM14 D835Y cells) | IC50 (IRAK4) | IC50 (IRAK1) | IC50 (FLT3) |
| --- | --- | --- | --- | --- |
| FC(F)COc1cc2ncc(-c3cncc(N[C@H]4CNC[C@@H]4F)n3)n2nc1C1CC1 [Compound 8a, 6-(6-cyclopropyl-7-(2,2-difluoroethoxy)imidazo[1,2-b]pyridazin-3-yl)-N-((3S,4S)-4-fluoropyrrolidin-3-yl)pyrazin-2-amine] | 91 nM | 2 nM | 34 nM | < 0.5 nM |
| FC(F)COc1cc2ncc(-c3cncc(N[C@@H]4CCCNC4)n3)n2nc1C1CC1 [Compound 9a, (R)-6-(6-cyclopropyl-7-(2,2-difluoroethoxy)imidazo[1,2-b]pyridazin-3-yl)-N-(piperidin-3-yl)pyrazin-2-amine] | 41 nM | 11 nM | 199 nM | < 0.5 nM |
| F[C@H]1CNC[C@@H]1Nc1nccc(-c2cnc3cc(OC4CC4)c(C4CC4)nn23)n1 [Compound 10a, 4-(7-cyclopropoxy-6-cyclopropylimidazo[1,2-b]pyridazin-3-yl)-N-((3S,4S)-4-fluoropyrrolidin-3-yl)pyrimidin-2-amine] | 91 nM | 3 nM | 26 nM | < 0.5 nM |
| COc1cc2ncc(-c3ccnc(N[C@H]4CNC[C@@H]4F)n3)n2nc1N1CC(F)(F)C1 [Compound 16a, 4-(6-(3,3-difluoroazetidin-1-yl)-7-methoxyimidazo[1,2-b]pyridazin-3-yl)-N-((3S,4S)-4-fluoropyrrolidin-3-yl)pyrimidin-2-amine] | 182 nM | 8 nM | 245 nM | < 0.5 nM |
| COc1cc2ncc(-c3ccnc(N[C@@H]4CCCNC4)n3)n2nc1N1CC(F)(F)C1 [Compound 17a, (R)-4-(6-(3,3-difluoroazetidin-1-yl)-7-methoxyimidazo[1,2-b]pyridazin-3-yl)-N-(piperidin-3-yl)pyrimidin-2-amine] | 182 nM | 215 nM | 1420 nM | 4 nM |
| COc1cc2ncc(-c3ccnc(N[C@H]4CNCC[C@@H]4F)n3)n2nc1N1CC(F)(F)C1 [Compound 18a, 4-(6-(3,3-difluoroazetidin-1-yl)-7-methoxyimidazo[1,2-b]pyridazin-3-yl)-N-((3S,4S)-4-fluoropiperidin-3-yl)pyrimidin-2-amine] | 51 nM | 15 nM | 226 nM | < 0.5 nM |
| COc1cc2ncc(-c3ccnc(N[C@H]4CNC[C@@H]4F)n3)n2nc1C1CC(F)(F)C1 [Compound 20a, 4-(6-(3,3-difluorocyclobutyl)-7-methoxyimidazo[1,2-b]pyridazin-3-yl)-N-((3S,4S)-4-fluoropyrrolidin-3-yl)pyrimidin-2-amine] | 182 nM | 12 nM | 170 nM | 0.7 nM |
| COc1cc2ncc(-c3ccnc(N[C@@H]4CCCNC4)n3)n2nc1C1CC(F)(F)C1 [Compound 21a, (R)-4-(6-(3,3-difluorocyclobutyl)-7-methoxyimidazo[1,2-b]pyridazin-3-yl)-N-(piperidin-3-yl)pyrimidin-2-amine] | 102 nM | 81 nM | 236 nM | < 0.5 nM |
| COc1cc2ncc(-c3ccnc(N[C@H]4CNCC[C@@H]4F)n3)n2nc1C(C)(C)O [Compound 40a, 2-(3-(2-(((3S,4S)-4-fluoropiperidin-3-yl)amino)pyrimidin-4-yl)-7-methoxyimidazo[1,2-b]pyridazin-6-yl)propan-2-ol] | 115 nM | 76 nM | 1130 nM | 3 nM |
| COc1cc2ncc(-c3ccnc(N[C@H]4CNC[C@@H]4F)n3)n2nc1C(C)(C)O [Compound 41a, 2-(3-(2-(((3S,4S)-4-fluoropyrrolidin-3-yl)amino)pyrimidin-4-yl)-7-methoxyimidazo[1,2-b]pyridazin-6-yl)propan-2-ol] | 289 nM | 36 nM | 1590 nM | 1 nM |
| COc1cc2ncc(-c3ccnc(N[C@@H]4CCCNC4)n3)n2nc1C(C)(C)O [Compound 42a, (R)-2-(7-methoxy-3-(2-(piperidin-3-ylamino)pyrimidin-4-yl)imidazo[1,2-b]pyridazin-6-yl)propan-2-ol] | 363 nM | 496 nM | 3250 nM | 10 nM |
| COc1cc2ncc(-c3nc(N[C@@H]4CCCNC4)ncc3F)n2nc1C(C)(C)O [Compound 43a, (R)-2-(3-(5-fluoro-2-(piperidin-3-ylamino)pyrimidin-4-yl)-7-methoxyimidazo[1,2-b]pyridazin-6-yl)propan-2-ol] | 23 nM | 29 nM | 50 nM | 1 nM |
| COc1cc2ncc(-c3nc(N[C@H]4CNC[C@@H]4F)ncc3F)n2nc1C(C)(C)O [Compound 44a, 2-(3-(5-fluoro-2-(((3S,4S)-4-fluoropyrrolidin-3-yl)amino)pyrimidin-4-yl)-7-methoxyimidazo[1,2-b]pyridazin-6-yl)propan-2-ol] | 51 nM | 4 nM | 32 nM | < 0.5 nM |
| CC(C)(O)c1ccc2ncc(-c3nc(N[C@H]4CNC[C@@H]4F)ncc3F)n2c1 [Compound 47a, 2-(3-(5-fluoro-2-(((3S,4S)-4-fluoropyrrolidin-3-yl)amino)pyrimidin-4-yl)imidazo[1,2-a]pyridin-6-yl)propan-2-ol] | 46 nM | 1 nM | 13 nM | < 0.5 nM |
| COc1cc2ncc(-c3nc(N[C@H]4CNC[C@@H]4F)ncc3F)n2nc1C1CC(F)(F)C1 [Compound 50a, 4-(6-(3,3-difluorocyclobutyl)-7-methoxyimidazo[1,2-b]pyridazin-3-yl)-5-fluoro-N-((3S,4S)-4-fluoropyrrolidin-3-yl)pyrimidin-2-amine] | 29 nM | 0.8 nM | 3 nM | < 0.5 nM |
